The NIST ThermoML archive (doi:10.1021/je700260f)

Conditions: 303.15 K, Liquid, Vibrating tube method

FC(C(F)(F)F)C(F)(F)F [1,1,1,2,3,3,3-heptafluoropropane]
Conditions | mass density [kg/m3]
8067 kPa | 1421.1
8093 kPa | 1421.3
8123 kPa | 1421.4
8152 kPa | 1421.5
8181 kPa | 1421.9
8211 kPa | 1422
8250 kPa | 1422.2
8280 kPa | 1422.3
8306 kPa | 1422.5
8340 kPa | 1422.8
8378 kPa | 1423
8411 kPa | 1423.1
8436 kPa | 1423.4
8471 kPa | 1423.6
8496 kPa | 1423.6
8526 kPa | 1423.9
8556 kPa | 1423.9
8581 kPa | 1424.3
8610 kPa | 1424.4
8640 kPa | 1424.4
8671 kPa | 1424.6
8697 kPa | 1424.8
8726 kPa | 1425
8752 kPa | 1425.2
8778 kPa | 1425.4
8808 kPa | 1425.5
8847 kPa | 1425.8
8873 kPa | 1425.9
8908 kPa | 1426.2
8947 kPa | 1426.2
8978 kPa | 1426.5
9004 kPa | 1426.6
9031 kPa | 1426.8
9066 kPa | 1426.9
9263 kPa | 1428.1
9299 kPa | 1428.3
9334 kPa | 1428.5
9370 kPa | 1428.6
9401 kPa | 1428.9
9445 kPa | 1429.1
9480 kPa | 1429.3
9502 kPa | 1429.4
9533 kPa | 1429.7
9567 kPa | 1429.9
9598 kPa | 1429.9
9634 kPa | 1430.2
9661 kPa | 1430.3
9693 kPa | 1430.5
9720 kPa | 1430.6
9747 kPa | 1430.8
9779 kPa | 1431.1
9806 kPa | 1431.2
9833 kPa | 1431.3
9878 kPa | 1431.5
9906 kPa | 1431.7
9938 kPa | 1431.8
9969 kPa | 1432.1
9996 kPa | 1432.3
10037 kPa | 1432.6
10069 kPa | 1432.6
10110 kPa | 1432.8
10137 kPa | 1433
10174 kPa | 1433.2
10201 kPa | 1433.4
10228 kPa | 1433.5
10255 kPa | 1433.7
10278 kPa | 1433.7
10311 kPa | 1434
10343 kPa | 1434
10379 kPa | 1434.3
10406 kPa | 1434.4
10434 kPa | 1434.6
10466 kPa | 1434.8
10494 kPa | 1434.9
10531 kPa | 1435.1
10559 kPa | 1435.3
10596 kPa | 1435.4
10629 kPa | 1435.8
10662 kPa | 1436
10695 kPa | 1436
10725 kPa | 1436.2
10753 kPa | 1436.4
10791 kPa | 1436.6
10824 kPa | 1436.9
10960 kPa | 1437.4
11032 kPa | 1437.7
11066 kPa | 1438
11105 kPa | 1438.2
11143 kPa | 1438.4
11183 kPa | 1438.6
11218 kPa | 1438.8
11258 kPa | 1439.1
11297 kPa | 1439.2
11332 kPa | 1439.3
11372 kPa | 1439.7
11402 kPa | 1439.8
11442 kPa | 1439.8
11473 kPa | 1440.1
11525 kPa | 1440.4
11555 kPa | 1440.6
11599 kPa | 1440.8
11633 kPa | 1441
11668 kPa | 1441.2
11703 kPa | 1441.2
11734 kPa | 1441.6
11770 kPa | 1441.7
11800 kPa | 1442
11840 kPa | 1442.2
11875 kPa | 1442.2
11915 kPa | 1442.5
11952 kPa | 1442.7
11987 kPa | 1442.8
12022 kPa | 1443
12052 kPa | 1443.3
12404 kPa | 1444.9
12445 kPa | 1445.1
12481 kPa | 1445.4
12527 kPa | 1445.6
12558 kPa | 1445.7
12595 kPa | 1446
12631 kPa | 1446.1
12681 kPa | 1446.4
12722 kPa | 1446.5
12752 kPa | 1446.7
12793 kPa | 1447
12830 kPa | 1447.2
12877 kPa | 1447.5
12924 kPa | 1447.5
12965 kPa | 1447.8
12995 kPa | 1447.8
13030 kPa | 1448.2
13077 kPa | 1448.3
13108 kPa | 1448.5
13150 kPa | 1448.8
13186 kPa | 1448.9
13229 kPa | 1449.2
13275 kPa | 1449.4
13317 kPa | 1449.6
13364 kPa | 1449.7
13400 kPa | 1449.9
13432 kPa | 1450.1
13468 kPa | 1450.3
13516 kPa | 1450.6
13547 kPa | 1450.6
13593 kPa | 1450.8
13620 kPa | 1451.1
13652 kPa | 1451.1
13689 kPa | 1451.3
13730 kPa | 1451.6
13762 kPa | 1451.7
13794 kPa | 1451.9
13826 kPa | 1452
13867 kPa | 1452.1
13900 kPa | 1452.4
13937 kPa | 1452.6
13966 kPa | 1452.7
14003 kPa | 1452.9
14032 kPa | 1453.1
14069 kPa | 1453.3
14113 kPa | 1453.4
14146 kPa | 1453.5
14189 kPa | 1453.8
14223 kPa | 1454.1
14261 kPa | 1454.1
14289 kPa | 1454.2
14322 kPa | 1454.4
14355 kPa | 1454.7
14388 kPa | 1454.9
14416 kPa | 1455
14450 kPa | 1455
14493 kPa | 1455
14521 kPa | 1455.4
14555 kPa | 1455.5
14875 kPa | 1457.1
14909 kPa | 1457.2
14938 kPa | 1457.4
14981 kPa | 1457.7
15024 kPa | 1457.9
15062 kPa | 1457.8
15091 kPa | 1458
15121 kPa | 1458.3
15159 kPa | 1458.3
15193 kPa | 1458.5
15222 kPa | 1458.7
15252 kPa | 1458.8
15283 kPa | 1459
15317 kPa | 1459.2
15351 kPa | 1459.2
15389 kPa | 1459.5
15422 kPa | 1459.6
15461 kPa | 1459.8
15500 kPa | 1459.9
15540 kPa | 1460.2
15578 kPa | 1460.3
15623 kPa | 1460.4
15662 kPa | 1460.6
15692 kPa | 1460.8
15721 kPa | 1461.1
15751 kPa | 1461.1
15780 kPa | 1461.1
15805 kPa | 1461.3
15840 kPa | 1461.4
15879 kPa | 1461.7
15914 kPa | 1461.8
15948 kPa | 1462
